From paper PMC9851200, “Multiparameter phenotypic screening for endogenous TFEB and TFE3 translocation identifies novel chemical series modulating lysosome function” (Autophagy, 2022)

Legend:
Format in all cases: binding
[1] = biological target: kinases (KINOMEscan panel) (Homo sapiens, UniProt Q99755); details: NEW KINOMEscan
[2] = biological target: kinases (KINOMEscan panel) (Homo sapiens, UniProt P36894); details: kinase BMPR1A; NEW KINOMEscan
[3] = biological target: kinases (KINOMEscan panel) (Homo sapiens, UniProt Q8IU85); details: kinase CAMK1D; NEW KINOMEscan
[4] = biological target: kinases (KINOMEscan panel) (Homo sapiens, UniProt Q08345); details: DDR1; NEW KINOMEscan
[5] = biological target: kinases (KINOMEscan panel) (Homo sapiens, UniProt P00519, F317I); details: NEW KINOMEscan; for KINOMEscan ABL1(F317I)-phosphorylated: kinase ABL1(F317I)-phosphorylated
[6] = biological target: T1, kinases (KINOMEscan panel) (Homo sapiens, UniProt O43318); details: NEW KINOMEscan
T1 sequence (O43318 1-606): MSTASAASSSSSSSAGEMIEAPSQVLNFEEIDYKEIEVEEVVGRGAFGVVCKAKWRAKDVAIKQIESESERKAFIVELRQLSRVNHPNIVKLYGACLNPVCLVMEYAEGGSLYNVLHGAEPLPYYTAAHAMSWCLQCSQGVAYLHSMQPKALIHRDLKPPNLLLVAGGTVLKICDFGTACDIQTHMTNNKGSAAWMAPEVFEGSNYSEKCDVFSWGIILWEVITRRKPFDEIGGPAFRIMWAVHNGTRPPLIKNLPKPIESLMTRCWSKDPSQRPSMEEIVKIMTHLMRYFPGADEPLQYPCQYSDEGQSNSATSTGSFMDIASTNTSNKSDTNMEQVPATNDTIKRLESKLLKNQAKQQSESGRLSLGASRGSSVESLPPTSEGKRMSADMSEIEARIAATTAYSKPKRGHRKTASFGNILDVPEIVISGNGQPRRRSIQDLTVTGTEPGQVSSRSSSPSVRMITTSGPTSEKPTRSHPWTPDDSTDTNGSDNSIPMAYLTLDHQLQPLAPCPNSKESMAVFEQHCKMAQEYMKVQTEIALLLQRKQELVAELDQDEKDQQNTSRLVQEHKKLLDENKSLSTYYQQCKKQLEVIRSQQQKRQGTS

[7] = biological target: kinases (KINOMEscan panel) (Homo sapiens, UniProt P17948); details: kinase FLT1; NEW KINOMEscan
[8] = biological target: kinases (KINOMEscan panel) (Homo sapiens, UniProt P27448); details: MARK3; NEW KINOMEscan
[9] = biological target: kinases (KINOMEscan panel) (Homo sapiens, UniProt P23458); details: JAK1(JH1domain-catalytic); NEW KINOMEscan
[10] = biological target: kinases (KINOMEscan panel) (Homo sapiens, UniProt Q15303); details: kinase ERBB4; NEW KINOMEscan
[11] = biological target: kinases (KINOMEscan panel) (Homo sapiens, UniProt P57059); details: kinase SIK1; NEW KINOMEscan
[12] = biological target: kinases (KINOMEscan panel) (Homo sapiens, UniProt Q00537); details: kinase CDK17; NEW KINOMEscan
[13] = biological target: kinases (KINOMEscan panel) (Homo sapiens, UniProt P11802); details: NEW KINOMEscan; for KINOMEscan CDK4-cyclinD3: kinase CDK4-cyclinD3; for KINOMEscan CDK4: kinase CDK4
[14] = biological target: kinases (KINOMEscan panel) (Homo sapiens, UniProt P35916); details: FLT4; NEW KINOMEscan
[15] = biological target: T2, kinases (KINOMEscan panel) (Homo sapiens, UniProt Q9H2K8); details: kinase TAOK3; NEW KINOMEscan
T2 sequence (Q9H2K8 1-898): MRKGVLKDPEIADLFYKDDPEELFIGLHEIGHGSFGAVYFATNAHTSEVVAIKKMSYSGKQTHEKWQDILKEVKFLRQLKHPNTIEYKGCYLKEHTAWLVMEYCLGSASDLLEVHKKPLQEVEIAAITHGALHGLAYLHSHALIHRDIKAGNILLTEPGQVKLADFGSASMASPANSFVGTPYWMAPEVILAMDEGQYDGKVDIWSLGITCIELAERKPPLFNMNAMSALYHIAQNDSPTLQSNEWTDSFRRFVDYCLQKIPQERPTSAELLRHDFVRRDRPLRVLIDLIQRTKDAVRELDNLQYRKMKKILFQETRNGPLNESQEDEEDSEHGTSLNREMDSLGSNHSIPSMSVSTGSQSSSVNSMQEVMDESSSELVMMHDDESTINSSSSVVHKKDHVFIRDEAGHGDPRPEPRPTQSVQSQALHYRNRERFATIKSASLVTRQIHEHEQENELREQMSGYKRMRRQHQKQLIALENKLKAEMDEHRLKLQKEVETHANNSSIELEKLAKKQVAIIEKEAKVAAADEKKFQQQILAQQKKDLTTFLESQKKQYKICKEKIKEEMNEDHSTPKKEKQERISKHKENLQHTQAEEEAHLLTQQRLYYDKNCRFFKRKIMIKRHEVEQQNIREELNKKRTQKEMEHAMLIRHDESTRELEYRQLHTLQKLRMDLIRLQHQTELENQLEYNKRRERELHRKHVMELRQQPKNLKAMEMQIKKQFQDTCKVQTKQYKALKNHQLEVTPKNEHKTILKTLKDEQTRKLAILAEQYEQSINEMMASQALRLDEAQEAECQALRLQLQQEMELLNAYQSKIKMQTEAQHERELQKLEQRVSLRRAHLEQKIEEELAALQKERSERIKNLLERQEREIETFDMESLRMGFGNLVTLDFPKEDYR

Chain of kinases (KINOMEscan panel) (Homo sapiens, UniProt P11802) (P11802 whole entry): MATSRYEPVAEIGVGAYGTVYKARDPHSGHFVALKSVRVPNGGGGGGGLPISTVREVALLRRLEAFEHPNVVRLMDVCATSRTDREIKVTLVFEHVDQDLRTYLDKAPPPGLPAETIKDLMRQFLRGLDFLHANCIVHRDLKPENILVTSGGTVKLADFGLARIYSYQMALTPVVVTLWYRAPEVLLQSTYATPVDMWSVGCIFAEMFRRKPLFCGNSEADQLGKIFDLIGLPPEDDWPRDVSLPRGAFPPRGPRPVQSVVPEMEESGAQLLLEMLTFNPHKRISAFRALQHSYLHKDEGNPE
Chain of kinases (KINOMEscan panel) (Homo sapiens, UniProt P00519, F317I) (P00519 whole entry F317I): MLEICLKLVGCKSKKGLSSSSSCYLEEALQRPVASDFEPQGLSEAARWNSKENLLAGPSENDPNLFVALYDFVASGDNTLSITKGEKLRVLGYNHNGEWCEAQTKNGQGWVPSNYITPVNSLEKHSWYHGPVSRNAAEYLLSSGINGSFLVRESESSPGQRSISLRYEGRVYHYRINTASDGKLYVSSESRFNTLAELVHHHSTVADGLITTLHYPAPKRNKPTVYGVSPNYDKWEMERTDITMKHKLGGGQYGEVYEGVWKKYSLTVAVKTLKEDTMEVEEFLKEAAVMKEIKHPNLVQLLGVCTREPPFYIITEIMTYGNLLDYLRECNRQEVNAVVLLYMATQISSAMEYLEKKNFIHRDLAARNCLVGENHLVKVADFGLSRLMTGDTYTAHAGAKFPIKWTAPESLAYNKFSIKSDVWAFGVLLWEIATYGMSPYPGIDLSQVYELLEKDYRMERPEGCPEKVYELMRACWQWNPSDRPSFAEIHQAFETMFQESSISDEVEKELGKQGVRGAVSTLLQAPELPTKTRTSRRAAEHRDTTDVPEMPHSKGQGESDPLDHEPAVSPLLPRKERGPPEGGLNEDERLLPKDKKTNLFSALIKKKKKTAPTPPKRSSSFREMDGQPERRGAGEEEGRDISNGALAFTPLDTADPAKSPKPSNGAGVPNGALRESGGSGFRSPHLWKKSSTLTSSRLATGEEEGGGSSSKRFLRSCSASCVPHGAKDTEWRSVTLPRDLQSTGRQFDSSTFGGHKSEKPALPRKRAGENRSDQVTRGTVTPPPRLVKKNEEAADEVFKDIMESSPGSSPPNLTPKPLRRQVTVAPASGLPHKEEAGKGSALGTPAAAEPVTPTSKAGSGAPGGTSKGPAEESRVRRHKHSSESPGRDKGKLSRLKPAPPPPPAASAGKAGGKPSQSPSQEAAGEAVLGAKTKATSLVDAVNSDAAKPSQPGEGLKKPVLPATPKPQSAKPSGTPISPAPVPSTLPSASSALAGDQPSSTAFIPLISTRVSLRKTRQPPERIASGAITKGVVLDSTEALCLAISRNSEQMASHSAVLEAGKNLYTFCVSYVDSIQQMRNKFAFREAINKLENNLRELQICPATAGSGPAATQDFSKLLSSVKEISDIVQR
Chain of kinases (KINOMEscan panel) (Homo sapiens, UniProt P17948) (P17948 27-1338): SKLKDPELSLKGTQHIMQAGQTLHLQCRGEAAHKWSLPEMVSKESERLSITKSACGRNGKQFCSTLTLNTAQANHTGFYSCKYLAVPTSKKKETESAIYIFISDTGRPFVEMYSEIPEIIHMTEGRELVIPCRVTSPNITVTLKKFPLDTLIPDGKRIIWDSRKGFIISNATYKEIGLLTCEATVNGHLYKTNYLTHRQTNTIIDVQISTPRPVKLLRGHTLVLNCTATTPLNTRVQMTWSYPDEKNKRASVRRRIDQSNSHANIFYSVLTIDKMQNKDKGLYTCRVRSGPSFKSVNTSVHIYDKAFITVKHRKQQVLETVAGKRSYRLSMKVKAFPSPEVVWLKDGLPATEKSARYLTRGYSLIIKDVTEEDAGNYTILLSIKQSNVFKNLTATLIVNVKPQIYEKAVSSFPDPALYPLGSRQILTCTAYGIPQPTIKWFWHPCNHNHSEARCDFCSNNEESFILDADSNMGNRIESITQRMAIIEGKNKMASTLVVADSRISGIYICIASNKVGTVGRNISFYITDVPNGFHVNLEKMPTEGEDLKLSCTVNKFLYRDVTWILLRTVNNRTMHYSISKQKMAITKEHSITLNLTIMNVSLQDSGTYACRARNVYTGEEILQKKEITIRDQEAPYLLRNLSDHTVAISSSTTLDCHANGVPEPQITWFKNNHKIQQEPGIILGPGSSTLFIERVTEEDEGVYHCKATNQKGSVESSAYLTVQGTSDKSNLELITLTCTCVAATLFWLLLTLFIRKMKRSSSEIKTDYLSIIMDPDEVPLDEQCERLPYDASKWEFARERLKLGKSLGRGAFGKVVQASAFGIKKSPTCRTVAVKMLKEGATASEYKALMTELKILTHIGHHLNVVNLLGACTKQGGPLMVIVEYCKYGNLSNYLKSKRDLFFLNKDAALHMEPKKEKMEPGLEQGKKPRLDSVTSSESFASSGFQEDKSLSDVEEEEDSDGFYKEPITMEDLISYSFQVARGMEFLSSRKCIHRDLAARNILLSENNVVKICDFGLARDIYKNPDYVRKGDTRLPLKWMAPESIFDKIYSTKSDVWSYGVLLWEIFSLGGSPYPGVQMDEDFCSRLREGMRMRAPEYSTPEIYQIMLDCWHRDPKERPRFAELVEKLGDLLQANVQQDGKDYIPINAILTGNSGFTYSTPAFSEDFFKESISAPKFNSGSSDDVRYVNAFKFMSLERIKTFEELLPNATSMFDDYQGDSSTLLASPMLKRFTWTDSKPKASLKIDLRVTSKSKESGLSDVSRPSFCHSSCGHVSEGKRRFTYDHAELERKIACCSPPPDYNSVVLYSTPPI
Chain of kinases (KINOMEscan panel) (Homo sapiens, UniProt Q00537) (Q00537 whole entry): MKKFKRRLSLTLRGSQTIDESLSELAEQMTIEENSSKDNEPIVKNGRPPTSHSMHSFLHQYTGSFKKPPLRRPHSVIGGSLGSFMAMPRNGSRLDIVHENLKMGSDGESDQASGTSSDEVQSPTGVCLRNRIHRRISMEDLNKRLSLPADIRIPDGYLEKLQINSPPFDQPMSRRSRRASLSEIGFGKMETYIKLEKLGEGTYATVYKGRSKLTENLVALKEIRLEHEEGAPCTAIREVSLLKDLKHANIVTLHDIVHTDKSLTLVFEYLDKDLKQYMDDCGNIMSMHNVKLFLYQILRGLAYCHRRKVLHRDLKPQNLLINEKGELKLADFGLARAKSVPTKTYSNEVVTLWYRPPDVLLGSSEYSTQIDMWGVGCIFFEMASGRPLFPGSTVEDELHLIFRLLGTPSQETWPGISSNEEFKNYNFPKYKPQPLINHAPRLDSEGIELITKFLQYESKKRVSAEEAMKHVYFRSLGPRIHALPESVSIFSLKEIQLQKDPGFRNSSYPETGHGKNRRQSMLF
Chain of kinases (KINOMEscan panel) (Homo sapiens, UniProt Q99755) (Q99755 whole entry): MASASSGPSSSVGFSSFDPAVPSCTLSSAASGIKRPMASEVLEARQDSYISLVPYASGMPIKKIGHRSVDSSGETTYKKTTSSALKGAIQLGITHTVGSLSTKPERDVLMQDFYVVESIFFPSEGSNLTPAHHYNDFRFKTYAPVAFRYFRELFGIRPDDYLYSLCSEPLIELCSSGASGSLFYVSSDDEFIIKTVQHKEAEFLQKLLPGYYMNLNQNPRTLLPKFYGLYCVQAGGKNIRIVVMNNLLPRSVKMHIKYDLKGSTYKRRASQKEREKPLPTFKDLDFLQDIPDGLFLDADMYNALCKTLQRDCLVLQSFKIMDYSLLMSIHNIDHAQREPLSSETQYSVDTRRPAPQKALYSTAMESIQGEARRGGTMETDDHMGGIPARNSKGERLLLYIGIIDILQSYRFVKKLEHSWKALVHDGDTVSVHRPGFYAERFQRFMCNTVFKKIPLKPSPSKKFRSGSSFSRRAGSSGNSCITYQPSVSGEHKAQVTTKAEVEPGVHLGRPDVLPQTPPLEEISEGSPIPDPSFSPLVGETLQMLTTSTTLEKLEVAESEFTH
Chain of kinases (KINOMEscan panel) (Homo sapiens, UniProt P23458) (P23458 whole entry): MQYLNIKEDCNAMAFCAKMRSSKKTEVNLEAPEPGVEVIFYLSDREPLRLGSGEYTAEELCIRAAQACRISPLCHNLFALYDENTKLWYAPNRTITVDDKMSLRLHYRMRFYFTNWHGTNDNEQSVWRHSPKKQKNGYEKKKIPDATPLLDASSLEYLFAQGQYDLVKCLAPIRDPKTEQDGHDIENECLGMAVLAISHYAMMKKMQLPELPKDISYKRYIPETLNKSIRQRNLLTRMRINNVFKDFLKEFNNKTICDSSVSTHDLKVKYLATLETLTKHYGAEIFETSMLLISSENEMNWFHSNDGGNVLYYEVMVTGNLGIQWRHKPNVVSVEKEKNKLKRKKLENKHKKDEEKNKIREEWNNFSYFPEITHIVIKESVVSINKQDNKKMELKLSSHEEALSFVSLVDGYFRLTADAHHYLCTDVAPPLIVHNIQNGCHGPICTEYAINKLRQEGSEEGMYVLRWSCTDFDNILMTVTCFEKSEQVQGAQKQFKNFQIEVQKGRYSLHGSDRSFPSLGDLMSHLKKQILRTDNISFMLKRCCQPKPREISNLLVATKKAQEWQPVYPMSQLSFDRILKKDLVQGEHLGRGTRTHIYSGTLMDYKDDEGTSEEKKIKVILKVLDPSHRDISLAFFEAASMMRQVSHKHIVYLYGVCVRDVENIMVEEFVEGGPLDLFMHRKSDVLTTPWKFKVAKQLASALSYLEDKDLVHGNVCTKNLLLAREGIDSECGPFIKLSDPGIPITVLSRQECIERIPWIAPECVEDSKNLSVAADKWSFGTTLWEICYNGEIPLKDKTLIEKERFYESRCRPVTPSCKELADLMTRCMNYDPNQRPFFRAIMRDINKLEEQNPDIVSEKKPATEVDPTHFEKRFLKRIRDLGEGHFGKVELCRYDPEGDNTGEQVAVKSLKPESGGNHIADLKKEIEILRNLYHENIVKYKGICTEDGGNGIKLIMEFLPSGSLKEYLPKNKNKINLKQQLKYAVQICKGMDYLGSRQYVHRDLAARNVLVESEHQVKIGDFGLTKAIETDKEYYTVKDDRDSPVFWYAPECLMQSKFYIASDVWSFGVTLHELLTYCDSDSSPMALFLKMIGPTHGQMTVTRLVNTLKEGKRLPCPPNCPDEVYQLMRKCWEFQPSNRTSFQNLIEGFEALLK

Compound: Cc1cccc(-c2nc(Nc3ccc4nn(C)cc4c3)c3ccccc3n2)n1 [NK167]
- KINOMEscan PIP5K1A [1]: 49
- KINOMEscan BMPR1A [2]: 13
- KINOMEscan CAMK1D [3]: 0
- KINOMEscan DDR1 [4]: 0
- KINOMEscan ABL1(F317I)-nonphosphorylated [5]: 0
- KINOMEscan ABL1(F317I)-phosphorylated [5]: 0
- KINOMEscan MAP3K7 [6]: 0
- KINOMEscan FLT1 [7]: 4
- KINOMEscan MARK3 [8]: 0
- KINOMEscan JAK1(JH1domain-catalytic) [9]: 0
- KINOMEscan ERBB4 [10]: 0
- KINOMEscan SIK1 [11]: 1
- KINOMEscan CDK17 [12]: 1
- KINOMEscan CDK4-cyclinD1 (???) CCND1 [13]: 10
- KINOMEscan CDK4-cyclinD3 [13]: 0
- KINOMEscan CDK4 [13]: 0
- KINOMEscan FLT4 [14]: 0
- KINOMEscan TAOK3 [15]: 4

Compound: Cc1cccc(-c2nc(N(C)c3ccc4ncsc4c3)c3ccccc3n2)n1 [NK-161]
- KINOMEscan PIP5K1A [1]: 52
- KINOMEscan BMPR1A [2]: 4
- KINOMEscan CAMK1D [3]: 0
- KINOMEscan DDR1 [4]: 0
- KINOMEscan ABL1(F317I)-nonphosphorylated [5]: 9
- KINOMEscan ABL1(F317I)-phosphorylated [5]: 0
- KINOMEscan MAP3K7 [6]: 10
- KINOMEscan FLT1 [7]: 12
- KINOMEscan MARK3 [8]: 0
- KINOMEscan JAK1(JH1domain-catalytic) [9]: 0
- KINOMEscan ERBB4 [10]: 0
- KINOMEscan SIK1 [11]: 12
- KINOMEscan CDK17 [12]: 0
- KINOMEscan CDK4-cyclinD1 (???) CCND1 [13]: 18
- KINOMEscan CDK4-cyclinD3 [13]: 0
- KINOMEscan CDK4 [13]: 0
- KINOMEscan FLT4 [14]: 1
- KINOMEscan TAOK3 [15]: 13
